Reference: ChEMBL document CHEMBL3751806, “Synthesis, experimental evaluation and molecular modelling of hydroxamate derivatives as zinc metalloproteinase inhibitors” (Eur J Med Chem, 2016)

Legend:
[1] = target: Thermolysin (Bacillus thermoproteolyticus) (UniProt P00800); test: Inhibition of Bacillus thermoproteolyticus thermolysin pretreated with compound for 15 mins followed by the addition of Abz-Ala-Gly-leu-Ala-p-nitrobenzalamide as substrate by spectrofluorometry
[2] = target: Disintegrin and metalloproteinase domain-containing protein 17 (Homo sapiens, UniProt P78536); test: Inhibition of recombinant human ADAM17 after 30 mins using FS-6 as substrate by fluorometry
Elastase = Elastase (Pseudomonas aeruginosa (strain ATCC 15692 / PAO1 / 1C / PRS 101 / LMG12228), UniProt P14756); test: Inhibition of Pseudomonas aeruginosa pseudolysin pretreated with compound for 1 hr followed by the addition of 1.73 uM bradykinin like substrate by spectrofluorometry
Thermolysin [3] = target: T1, Thermolysin (Bacillus thermoproteolyticus, UniProt P00800); test: Inhibition of Bacillus thermoproteolyticus thermolysin pretreated with compound for 1 hr followed by the addition of 3.33 uM bradykinin like substrate by spectrofluorometry assay
T1 sequence (P00800 whole entry): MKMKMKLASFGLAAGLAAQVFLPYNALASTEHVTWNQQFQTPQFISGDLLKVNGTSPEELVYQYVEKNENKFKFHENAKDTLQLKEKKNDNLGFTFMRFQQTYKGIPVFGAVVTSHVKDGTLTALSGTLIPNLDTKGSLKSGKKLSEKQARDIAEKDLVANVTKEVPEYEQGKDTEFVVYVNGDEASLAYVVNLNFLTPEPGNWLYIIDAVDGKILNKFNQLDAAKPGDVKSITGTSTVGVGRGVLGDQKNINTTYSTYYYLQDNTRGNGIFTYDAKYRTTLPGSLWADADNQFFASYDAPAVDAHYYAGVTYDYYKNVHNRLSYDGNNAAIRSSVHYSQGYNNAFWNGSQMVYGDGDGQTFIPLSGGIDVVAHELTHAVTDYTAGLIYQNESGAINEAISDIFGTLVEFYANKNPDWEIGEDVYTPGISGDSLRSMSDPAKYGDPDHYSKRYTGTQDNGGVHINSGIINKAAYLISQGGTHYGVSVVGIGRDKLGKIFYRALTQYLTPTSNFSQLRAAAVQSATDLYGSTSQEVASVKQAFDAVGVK

[4] = target: Matrix metalloproteinase-9 (Homo sapiens, UniProt P14780); test: Inhibition of recombinant human MMP9 after 2 hrs using FS-6 as substrate by fluorometry
[5] = target: 72 kDa type IV collagenase (Homo sapiens, UniProt P08253); test: Inhibition of recombinant human MMP2 after 2 hrs using FS-6 as substrate by fluorometry
Thermolysin [6] = target: T1, Thermolysin; test: Inhibition of Bacillus thermoproteolyticus thermolysin pretreated with compound for 15 mins followed by the addition of 75 uM Abz-Ala-Gly-leu-Ala-p-nitrobenzalamide as substrate by spectrofluorometry

Chain of Elastase (P14756 whole entry): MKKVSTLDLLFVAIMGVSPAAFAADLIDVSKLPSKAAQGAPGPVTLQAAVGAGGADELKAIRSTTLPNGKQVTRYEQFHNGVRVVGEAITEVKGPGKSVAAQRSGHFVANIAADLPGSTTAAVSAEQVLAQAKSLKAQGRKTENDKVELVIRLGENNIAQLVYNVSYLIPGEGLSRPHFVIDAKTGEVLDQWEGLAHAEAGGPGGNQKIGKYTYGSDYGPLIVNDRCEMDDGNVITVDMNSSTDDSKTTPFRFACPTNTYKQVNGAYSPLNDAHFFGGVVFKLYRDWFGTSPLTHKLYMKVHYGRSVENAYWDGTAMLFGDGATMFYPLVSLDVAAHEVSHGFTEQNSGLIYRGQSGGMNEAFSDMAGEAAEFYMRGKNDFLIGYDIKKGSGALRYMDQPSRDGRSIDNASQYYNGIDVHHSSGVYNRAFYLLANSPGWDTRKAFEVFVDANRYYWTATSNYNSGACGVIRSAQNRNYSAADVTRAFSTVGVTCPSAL
Chain of 72 kDa type IV collagenase (P08253 whole entry): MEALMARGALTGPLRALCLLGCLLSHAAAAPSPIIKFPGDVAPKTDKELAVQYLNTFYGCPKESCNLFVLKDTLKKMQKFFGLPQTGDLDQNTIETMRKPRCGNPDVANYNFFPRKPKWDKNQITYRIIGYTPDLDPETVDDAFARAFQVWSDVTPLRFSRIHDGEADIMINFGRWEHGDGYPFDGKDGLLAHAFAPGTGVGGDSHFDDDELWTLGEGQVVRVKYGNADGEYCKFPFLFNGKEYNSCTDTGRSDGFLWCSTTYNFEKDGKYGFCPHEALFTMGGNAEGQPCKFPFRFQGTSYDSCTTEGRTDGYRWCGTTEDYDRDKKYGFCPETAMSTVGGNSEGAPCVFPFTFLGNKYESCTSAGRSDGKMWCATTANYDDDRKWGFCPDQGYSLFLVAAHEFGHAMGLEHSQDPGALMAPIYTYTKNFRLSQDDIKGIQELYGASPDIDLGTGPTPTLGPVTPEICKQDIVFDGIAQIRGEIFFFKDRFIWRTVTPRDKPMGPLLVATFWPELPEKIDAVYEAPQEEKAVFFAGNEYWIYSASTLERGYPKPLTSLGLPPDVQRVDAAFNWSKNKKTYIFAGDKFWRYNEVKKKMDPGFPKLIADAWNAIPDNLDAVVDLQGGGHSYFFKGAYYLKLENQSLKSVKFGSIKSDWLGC
Chain of Matrix metalloproteinase-9 (P14780 whole entry): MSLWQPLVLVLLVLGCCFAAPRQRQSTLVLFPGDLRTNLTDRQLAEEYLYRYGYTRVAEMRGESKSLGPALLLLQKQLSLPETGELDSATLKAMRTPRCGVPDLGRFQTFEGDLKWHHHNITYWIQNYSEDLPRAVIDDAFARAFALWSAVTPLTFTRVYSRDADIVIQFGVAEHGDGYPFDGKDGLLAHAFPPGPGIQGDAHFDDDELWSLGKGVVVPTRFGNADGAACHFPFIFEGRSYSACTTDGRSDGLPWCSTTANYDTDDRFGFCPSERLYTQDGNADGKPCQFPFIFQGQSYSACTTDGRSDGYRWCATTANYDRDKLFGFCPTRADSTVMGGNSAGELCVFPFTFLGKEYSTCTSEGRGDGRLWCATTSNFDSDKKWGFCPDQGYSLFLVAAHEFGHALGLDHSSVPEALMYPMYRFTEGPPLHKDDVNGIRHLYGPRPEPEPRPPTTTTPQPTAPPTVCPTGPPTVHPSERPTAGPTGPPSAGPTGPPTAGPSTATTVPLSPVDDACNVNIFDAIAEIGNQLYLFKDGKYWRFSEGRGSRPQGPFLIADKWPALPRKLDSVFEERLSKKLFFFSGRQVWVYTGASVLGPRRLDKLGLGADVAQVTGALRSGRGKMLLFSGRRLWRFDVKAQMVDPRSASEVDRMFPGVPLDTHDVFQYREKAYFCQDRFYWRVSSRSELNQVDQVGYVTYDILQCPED
Chain of Disintegrin and metalloproteinase domain-containing protein 17 (P78536 whole entry, the tested form may be a part): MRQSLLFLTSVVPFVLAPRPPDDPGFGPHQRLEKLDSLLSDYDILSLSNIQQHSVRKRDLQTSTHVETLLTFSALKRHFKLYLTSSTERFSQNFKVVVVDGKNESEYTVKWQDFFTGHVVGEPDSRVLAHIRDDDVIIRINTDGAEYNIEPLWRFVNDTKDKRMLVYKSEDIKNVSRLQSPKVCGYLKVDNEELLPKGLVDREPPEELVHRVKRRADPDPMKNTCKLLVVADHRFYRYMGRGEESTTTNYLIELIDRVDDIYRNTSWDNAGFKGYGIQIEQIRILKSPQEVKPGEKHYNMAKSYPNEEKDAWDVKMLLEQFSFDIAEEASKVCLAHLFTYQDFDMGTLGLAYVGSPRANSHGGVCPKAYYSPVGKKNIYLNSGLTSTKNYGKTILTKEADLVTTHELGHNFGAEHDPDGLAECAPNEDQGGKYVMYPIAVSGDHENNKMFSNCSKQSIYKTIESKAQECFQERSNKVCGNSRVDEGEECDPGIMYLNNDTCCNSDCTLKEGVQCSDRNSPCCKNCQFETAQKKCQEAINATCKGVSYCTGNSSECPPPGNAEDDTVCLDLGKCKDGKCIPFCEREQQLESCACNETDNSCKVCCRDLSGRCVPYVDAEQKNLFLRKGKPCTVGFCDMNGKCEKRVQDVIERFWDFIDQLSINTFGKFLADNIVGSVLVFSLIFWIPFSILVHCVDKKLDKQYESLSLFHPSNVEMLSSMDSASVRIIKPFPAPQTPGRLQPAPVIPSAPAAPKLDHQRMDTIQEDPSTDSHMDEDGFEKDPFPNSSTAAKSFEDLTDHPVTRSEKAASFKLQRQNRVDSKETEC

Structure (SMILES)	IC50 [1] [µM]	IC50 [2] [µM]	IC50 (Elastase) [µM]	IC50 (Thermolysin [3]) [µM]	IC50 [4] [µM]	IC50 [5] [µM]	IC50 (Thermolysin [6]) [µM]
COc1ccc(S(=O)(=O)N(CC(C)C)[C@@H](C(=O)NO)C(C)C)cc1	103						
CC(C)ON([C@@H](C(=O)NO)C(C)C)S(=O)(=O)c1ccc(-c2ccccc2)cc1		14					
CCCCC(NOCc1ccccc1)C(=O)NO (configuration not stated)	1.1	100	1.9	9.5			
O=C(Cc1ccccc1S(=O)(=O)c1ccc(OCCCN2C(=O)c3ccccc3C2=O)cc1)NO	7	150	38	132	> 10	> 10	
O=C(N[C@H](CCN1C(=O)c2ccccc2C1=O)C(=O)NO)c1ccc(Oc2ccccc2)cc1	16	9.5			8.2	9	
COc1ccc(S(=O)(=O)N(CC(=O)NO)OC23CC4CC(CC(C4)C2)C3)cc1					2	2	
O=C(CCNS(=O)(=O)c1ccc(-c2ccccc2)cc1)NO	30		79	30	26	2.4	30
CC(C)CN([C@@H](C(=O)NO)C(C)C)S(=O)(=O)c1ccc(-c2ccccc2)cc1					0.0053	0.003	
CC(C)ON(CC(=O)NO)S(=O)(=O)c1ccc(Br)s1	3.3	114	31	29	6.2	1.1	29
COc1ccc(S(=O)(=O)c2ccccc2CC(=O)NO)cc1	17	67	29	146			
